Measured values taken from ChEMBL document CHEMBL1201862, “PubChem BioAssay data set” (2004).
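Five compound concentrations were applied to cells in 96-well plates for 48 hours; endpoints were derived by simple linear interpolation of the resulting dose-response curve. GI50: concentration for 50% inhibition of growth.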 Active and inactive are the calls of the source. Rule as the data show it: active = GI50 up to about 1.1 µM and inactive = higher.

Key:
Assay in all cases: DTP human tumour cell line panel, 48 h
NCI-H23 = test system: NCI-H23
HCC 2998 = test system: HCC 2998
HL-60 = test system: HL-60
HCT-116 = test system: HCT-116
OVCAR-4 = test system: OVCAR-4
Malme-3M = test system: Malme-3M
M14 = test system: M14
NCI-H226 = test system: NCI-H226
SNB-19 = test system: SNB-19
SW-620 = test system: SW-620
LOX IMVI = test system: LOX IMVI
UACC-257 = test system: UACC-257
U-251 = test system: U-251
HOP-92 = test system: HOP-92
SF-268 = test system: SF-268
SK-MEL-5 = test system: SK-MEL-5
OVCAR-5 = test system: OVCAR-5
MDA-MB-231 = test system: MDA-MB-231

Measured: GI50

O=C1NC(Nc2ccccc2Cl)=N/C1=C\c1c(Cl)cccc1Cl
inactive: NCI-H23 37.1 µM | HCC 2998 21.9 µM | HL-60 18.6 µM | HCT-116 22.5 µM | OVCAR-4 11.6 µM | Malme-3M 31.1 µM | M14 40.9 µM | NCI-H226 42.5 µM | SNB-19 44.1 µM | SW-620 37.5 µM | LOX IMVI 29.4 µM | UACC-257 25.4 µM | U-251 8.43 µM | HOP-92 19.9 µM | SF-268 31.1 µM | SK-MEL-5 20.3 µM | OVCAR-5 30 µM

Clc1cc(Cl)ncn1
inactive: NCI-H23 > 100 µM | HCC 2998 > 100 µM | HCT-116 > 100 µM | OVCAR-4 > 100 µM | Malme-3M > 100 µM | M14 > 100 µM | NCI-H226 > 100 µM | SNB-19 > 100 µM | SW-620 > 100 µM | LOX IMVI > 100 µM | U-251 > 100 µM | HOP-92 > 100 µM | SF-268 > 100 µM | SK-MEL-5 > 100 µM | MDA-MB-231 > 100 µM | OVCAR-5 > 100 µM

CCN(CC)CCN(C)CCc1ccc(Br)cc1
inactive: NCI-H23 > 100 µM | HCC 2998 > 100 µM | HCT-116 59.8 µM | OVCAR-4 97.3 µM | Malme-3M > 100 µM | M14 17.2 µM | NCI-H226 24.7 µM | SNB-19 > 100 µM | SW-620 54.8 µM | LOX IMVI 42.9 µM | UACC-257 37.6 µM | U-251 41.4 µM | HOP-92 27.4 µM | SF-268 > 100 µM | SK-MEL-5 17.2 µM | MDA-MB-231 54.3 µM | OVCAR-5 48 µM

Cc1cc(N)c2cc(NC(=O)Nc3ccc4nc(C)cc(N)c4c3)ccc2n1
inactive: NCI-H23 > 100 µM | HCC 2998 > 100 µM | HCT-116 > 100 µM | OVCAR-4 > 100 µM | Malme-3M > 100 µM | M14 > 100 µM | NCI-H226 > 100 µM | SNB-19 > 100 µM | SW-620 > 100 µM | LOX IMVI > 100 µM | UACC-257 > 100 µM | U-251 70.6 µM | HOP-92 > 100 µM | SF-268 > 100 µM | SK-MEL-5 70.1 µM | MDA-MB-231 47.8 µM | OVCAR-5 > 100 µM

COc1cc(S(=O)(=O)Nc2ccc(-c3csc(/N=C\C=C\c4ccccc4)n3)cc2)ccc1Cl
inactive: NCI-H23 30.9 µM | HCC 2998 > 100 µM | HL-60 43.3 µM | HCT-116 46.8 µM | OVCAR-4 28.5 µM | Malme-3M 37.4 µM | M14 29.9 µM | NCI-H226 24.2 µM | SNB-19 84.3 µM | SW-620 > 100 µM | LOX IMVI 29.6 µM | UACC-257 7.76 µM | HOP-92 22.8 µM | SF-268 29.9 µM | SK-MEL-5 38.3 µM | OVCAR-5 > 100 µM

CN1c2ccccc2C2=C(c3ccccc3)CC[C@@H](C(=O)N3C4CC5CC[C@@]4(CS3(=O)=O)C5(C)C)[C@@H]21 (some centres not stated)
inactive: NCI-H23 > 100 µM | HCT-116 34.2 µM | OVCAR-4 > 100 µM | Malme-3M > 100 µM | M14 > 100 µM | NCI-H226 > 100 µM | SNB-19 > 100 µM | SW-620 > 100 µM | LOX IMVI > 100 µM | UACC-257 > 100 µM | U-251 > 100 µM | HOP-92 > 100 µM | SF-268 > 100 µM | SK-MEL-5 > 100 µM | MDA-MB-231 > 100 µM | OVCAR-5 > 100 µM

COC(=O)C1=C(C)N2[C@H](C(=O)O)CS[C@@]2(C)[C@H](C(=O)OC)[C@H]1c1cccc([N+](=O)[O-])c1
inactive: NCI-H23 > 100 µM | HCC 2998 > 100 µM | HCT-116 > 100 µM | OVCAR-4 > 100 µM | Malme-3M > 100 µM | M14 > 100 µM | NCI-H226 > 100 µM | SNB-19 > 100 µM | SW-620 > 100 µM | UACC-257 > 100 µM | U-251 > 100 µM | HOP-92 54.5 µM | SF-268 > 100 µM | SK-MEL-5 > 100 µM | MDA-MB-231 > 100 µM | OVCAR-5 > 100 µM

O=C(O)CC1(CC(=O)O)Nc2ccccc2SC1=O
inactive: NCI-H23 > 100 µM | HCC 2998 > 100 µM | HCT-116 > 100 µM | OVCAR-4 > 100 µM | Malme-3M > 100 µM | M14 > 100 µM | NCI-H226 > 100 µM | SNB-19 > 100 µM | SW-620 > 100 µM | LOX IMVI > 100 µM | UACC-257 > 100 µM | U-251 > 100 µM | HOP-92 > 100 µM | SF-268 > 100 µM | SK-MEL-5 > 100 µM | MDA-MB-231 > 100 µM | OVCAR-5 > 100 µM

COC(=O)Cc1c(-c2[nH]c3ccccc3c2CC(=O)OC)[nH]c2ccccc12
inactive: NCI-H23 > 55.5 µM | HCC 2998 > 57 µM | HCT-116 > 54.2 µM | OVCAR-4 > 49.9 µM | Malme-3M > 55.6 µM | M14 > 52.4 µM | NCI-H226 > 54.7 µM | SNB-19 53.5 µM | SW-620 > 53.5 µM | LOX IMVI > 58.6 µM | UACC-257 > 56.1 µM | U-251 51.1 µM | HOP-92 > 50.9 µM | SF-268 20.4 µM | SK-MEL-5 > 52.7 µM | MDA-MB-231 38.7 µM | OVCAR-5 > 54.8 µM

O=[N+]([O-])c1ccc(/N=N/c2c(O)ccc3cc(S(=O)(=O)O)ccc23)cc1
inactive: NCI-H23 > 100 µM | HCT-116 > 100 µM | OVCAR-4 > 100 µM | Malme-3M > 100 µM | M14 > 100 µM | SNB-19 > 100 µM | SW-620 > 100 µM | LOX IMVI > 100 µM | UACC-257 > 100 µM | U-251 > 100 µM | HOP-92 > 100 µM | SF-268 > 100 µM | SK-MEL-5 > 100 µM | MDA-MB-231 > 100 µM | OVCAR-5 > 100 µM

CCOC(=O)Nn1cnnc1C
inactive: NCI-H23 > 100 µM | HCC 2998 > 100 µM | HCT-116 > 100 µM | OVCAR-4 > 100 µM | Malme-3M > 100 µM | M14 > 100 µM | NCI-H226 > 100 µM | SNB-19 > 100 µM | SW-620 > 100 µM | LOX IMVI > 100 µM | UACC-257 > 100 µM | U-251 > 100 µM | HOP-92 > 100 µM | SK-MEL-5 > 100 µM | MDA-MB-231 > 100 µM | OVCAR-5 > 100 µM

O=C1C(=C/C=C2/SC(c3ccccc3)(c3ccccc3)c3ccccc32)C(=O)c2ccccc21
inactive: NCI-H23 > 100 µM | HCC 2998 > 100 µM | HCT-116 > 100 µM | OVCAR-4 > 100 µM | Malme-3M > 100 µM | M14 > 100 µM | NCI-H226 > 100 µM | SNB-19 > 100 µM | SW-620 > 100 µM | LOX IMVI > 100 µM | UACC-257 > 100 µM | U-251 > 100 µM | HOP-92 > 100 µM | SF-268 > 100 µM | SK-MEL-5 > 100 µM | MDA-MB-231 > 100 µM | OVCAR-5 > 100 µM
